Patent US10544130B2, “Metallo-beta-lactamase inhibitors” (priority 2015, dated 2020)

Tests used:
[1] = tested on: Pseudomonas aeruginosa PAO1 MB9798 (efflux+, IMP-1); details: ratio MITC95 PA 9798/MITC95 PA 9799; imipenem at 2 μg/mL
How it was run: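 Isogenic PAO1 pair (efflux+ MB9798, efflux− MB9799, both IMP-1) tested by microbroth MIC with fixed imipenem and/or ceftazidime, usually at CLSI breakpoint, plus fixed class A/C inhibitor against AmpC. MBL inhibitor titrated; concentration restoring susceptibility recorded and fold difference between strains taken as efflux extent.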

[2] = tested on: Serratia marcescens expressing IMP-1 (CL5741); assay type: cell-based; details: with imipenem 1 μg/ml; 95% inhibition of bacterial growth
How it was run: (§1)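 Growth read by absorbance after 22–24 h at 35 °C in CAMHB, with test compound alone or combined with 1 μg/ml imipenem. Inocula came from overnight 35 °C blood-agar colonies, set to a defined OD600 and diluted 1:100. Value is the inhibitor concentration giving synergy.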

[3] = tested on: Klebsiella pneumoniae expressing VIM-1 (IHMA599644); assay type: cell-based; details: with imipenem 1 μg/ml; 95% inhibition of bacterial growth
How it was run: as §1

| Compound | Efflux ratio [1] | Serratia marcescens (IMP-1) MITC95 [2] | Klebsiella pneumoniae (VIM-1) MITC95 [3] |
| --- | --- | --- | --- |
| Nc1nc2c(-c3ccc(S(=O)(=O)N[C@@H]4CNC[C@@H]4N)c(S(N)(=O)=O)c3-c3nn[nH]n3)cccc2[nH]1 [Example 240, 4-(2-amino-1H-benzo[d]imidazol-4-yl)-N^1-((3R,4S)-4-aminopyrrolidin-3-yl)-3-(2H-tetrazol-5-yl)benzene-1,2-disulfonamide] | 1.00 | 0.7813 µM | 1.563 µM |
| CN(C1CNC1)S(=O)(=O)c1ccc(-c2cccc3[nH]c(N)nc23)c(-c2nn[nH]n2)c1S(N)(=O)=O [Example 255, 4-(2-amino-1H-benzo[d]imidazol-4-yl)-N1-(azetidin-3-yl)-N1-methyl-3-(2H-tetrazol-5-yl)benzene-1,2-disulfonamide] | 2.00 | 0.7813 µM | 0.7813 µM |
| CC1(NS(=O)(=O)c2ccc(-c3cccc4[nH]c(N)nc34)c(-c3nn[nH]n3)c2S(N)(=O)=O)CNC1 [Example 257, 4-(2-amino-1H-benzo[d]imidazol-4-yl)-N1-(3-methylazetidin-3-yl)-3-(2H-tetrazol-5-yl)benzene-1,2-disulfonamide] | 1.00 | 0.7813 µM | 0.7813 µM |
| Nc1nc2c(-c3ccc(S(=O)(=O)NC[C@H]4CCCN4)c(S(N)(=O)=O)c3-c3nn[nH]n3)cccc2[nH]1 [Example 261, (R)-4-(2-amino-1H-benzo[d]imidazol-4-yl)-N1-(pyrrolidin-2-ylmethyl)-3-(2H-tetrazol-5-yl) benzene-1,2-disulfonamide] | 1.00 | 0.7813 µM | 0.7813 µM |
| Nc1nc2c(-c3ccc(S(=O)(=O)NC[C@@H]4CCCN4)c(S(N)(=O)=O)c3-c3nn[nH]n3)cccc2[nH]1 [Example 262, (S)-4-(2-amino-1H-benzo[d]imidazol-4-yl)-N1-(pyrrolidin-2-ylmethyl)-3-(2H-tetrazol-5-yl)benzene-1,2-disulfonamide] | 1.00 | 0.7813 µM | 0.7813 µM |
| C[C@H](N)c1nc2c(-c3ccc(S(=O)(=O)N[C@@H]4CCNC4)c(S(N)(=O)=O)c3-c3nn[nH]n3)cccc2[nH]1 [Example 272, 4-(2-((S)-1-aminoethyl)-1H-benzo[d]imidazol-4-yl)-N1-((R)-pyrrolidin-3-yl)-3-(2H-tetrazol-5-yl)benzene-1,2-disulfonamide] | 2.00 | 1.563 µM | 1.563 µM |
| NCc1nc2c(-c3ccc(S(=O)(=O)N[C@@H]4CCNC4)c(S(N)(=O)=O)c3-c3nn[nH]n3)cccc2s1 [Example 276, (R)-4-(2-(aminomethyl)benzo[d]thiazol-4-yl)-N1-(pyrrolidin-3-yl)-3-(2H-tetrazol-5-yl)benzene-1,2-disulfonamide] | 1.00 | 0.7813 µM | 0.7813 µM |
| NCc1csc(Nc2cccc(-c3ccc(S(=O)(=O)N[C@@H]4CCNC4)c(S(N)(=O)=O)c3-c3nn[nH]n3)c2)n1 [Example 290, (R)-3′-((4-(aminomethyl)thiazol-2-yl)amino)-N4-(pyrrolidin-3-yl)-2-(2H-tetrazol-5-yl)-[1,1′-biphenyl]-3,4-disulfonamide] | 2.00 | 0.7813 µM | 0.7813 µM |
| NCCNS(=O)(=O)c1ccc(-c2cnc3cc[nH]c3c2)c(-c2nn[nH]n2)c1S(N)(=O)=O [Example 359, N1-(2-aminoethyl)-4-(1H-pyrrolo[3,2-b]pyridin-6-yl)-3-(2H-tetrazol-5-yl)benzene-1,2-disulfonamide] | 2.00 |  | 1.563 µM |
| NC[C@H](N)CNS(=O)(=O)c1ccc(-c2cccc3[nH]c(N)nc23)c(-c2nn[nH]n2)c1S(N)(=O)=O [Example 370, (S)-4-(2-amino-1H-benzo[d]imidazol-4-yl)-N1-(2,3-diaminopropyl)-3-(2H-tetrazol-5-yl)benzene-1,2-disulfonamide] | 1.00 |  | 1.563 µM |
| C[C@@H](CN)NS(=O)(=O)c1ccc(-c2cccc3sc(N)nc23)c(-c2nn[nH]n2)c1S(N)(=O)=O [Example 389, 4-(2-amino-1,3-benzothiazol-4-yl)-N^1-[(1S)-2-amino-1-methylethyl]-3-(2H-tetrazol-S-yl)benzene-1,2-disulfonamide] |  | 3.125 µM | 3.125 µM |
| C[C@@H](CN)NS(=O)(=O)c1ccc(-c2ccc(N)nc2)c(-c2nn[nH]n2)c1S(N)(=O)=O [Example 394, (S)-N^1-(1-aminopropan-2-yl)-4-(6-aminopyridin-3-yl)-3-(2H-tetrazol-5-yl)benzene-1,2-disulfonamide] |  | 1.563 µM | 3.125 µM |
| C[C@H](CN)NS(=O)(=O)c1ccc(-c2cccc3c2nc(N)n3C)c(-c2nn[nH]n2)c1S(N)(=O)=O [Example 395, (R)-4-(2-amino-1-methyl-1H-benzo[d]imidazol-4-yl)-N^1-(1-aminopropan-2-yl)-3-(2H-tetrazol-5-yl)benzene-1,2-disulfonamide] |  | 1.563 µM | 1.563 µM |
| NC[C@H](CO)NS(=O)(=O)c1ccc(-c2cccc3[nH]nnc23)c(-c2nn[nH]n2)c1S(N)(=O)=O [Example 407, (R)-N^1-(1-amino-3-hydroxypropan-2-yl)-4-(1H-benzo[d][1,2,3]triazol-4-yl)-3-(2H-tetrazol-5-yl)benzene-1,2-disulfonamide] |  | 1.563 µM | 3.125 µM |
| NC[C@H](O)CNS(=O)(=O)c1ccc(-c2ccc3nccn3c2)c(-c2nn[nH]n2)c1S(N)(=O)=O [Example 418, (S)-N^1-(3-amino-2-hydroxypropyl)-4-(imidazo[1,2-a]pyridin-6-yl)-3-(2H-tetrazol-5-yl)benzene-1,2-disulfonamide] |  | 0.7813 µM | 1.563 µM |
| C[C@H](N)CNS(=O)(=O)c1ccc(-c2ccnc(N)c2)c(-c2nn[nH]n2)c1S(N)(=O)=O [Example 421, (S)-N^1-(2-aminopropyl)-4-(2-aminopyridin-4-yl)-3-(2H-tetrazol-5-yl)benzene-1,2-disulfonamide] |  | 0.7813 µM | 1.563 µM |
| C[C@@H](N)CNS(=O)(=O)c1ccc(-c2ccnc(N)c2)c(-c2nn[nH]n2)c1S(N)(=O)=O [Example 422, (R)-N^1-(2-aminopropyl)-4-(2-aminopyridin-4-yl)-3-(2H-tetrazol-5-yl)benzene-1,2-disulfonamide] |  | 0.7813 µM | 1.563 µM |
| NCC(CN)NS(=O)(=O)c1ccc(-c2cccc3ccc(N)nc23)c(-c2nn[nH]n2)c1S(N)(=O)=O [Example 430, 4-(2-aminoquinolin-8-yl)-N1-(1,3-diaminopropan-2-yl)-3-(2H-tetrazol-5-yl)benzene-1,2-disulfonamide] |  | 1.563 µM | 1.563 µM |
| Nc1ncc(-c2cccc(-c3ccc(S(=O)(=O)N[C@@H]4CCNC4)c(S(N)(=O)=O)c3-c3nnn[nH]3)n2)[nH]1 [Example 439, (R)-4-(6-(2-Amino-1H-imidazol-5-yl)pyridin-2-yl)-N^1-(pyrrolidin-3-yl)-3-(1H-tetrazol-5-yl)benzene-1,2-disulfonamide] |  | 1.563 µM | 1.563 µM |
| NCCNc1ncccc1-c1ccc(S(=O)(=O)N[C@@H]2CCNC2)c(S(N)(=O)=O)c1-c1nn[nH]n1 [Example 459, (R)-4-(2-((2-Aminoethyl)amino)pyridin-3-yl)-N1-(pyrrolidin-3-yl)-3-(2H-tetrazol-5-yl)benzene-1,2-disulfonamide] |  | 1.563 µM | 1.563 µM |
| C[C@H](CN)NS(=O)(=O)c1ccc(-c2cccnc2NCCN)c(-c2nn[nH]n2)c1S(N)(=O)=O [Example 460, (R)-4-(2-((2-aminoethyl)amino)pyridin-3-yl)-N1-(1-aminopropan-2-yl)-3-(2H-tetrazol-5-yl)benzene-1,2-disulfonamide] |  | 1.563 µM | 1.563 µM |
| Cc1cc(-c2ccc(S(=O)(=O)NC[C@H](O)CN)c(S(N)(=O)=O)c2-c2nn[nH]n2)cnc1N [Example 477, (R)—N1-(3-amino-2-hydroxypropyl)-4-(6-amino-5-methylpyridin-3-yl)-3-(2H-tetrazol-5-yl)benzene-1,2-disulfonamide] |  | 0.7813 µM | 1.563 µM |
| NCCNCCNS(=O)(=O)c1ccc(-c2ccc(N)nc2)c(-c2nn[nH]n2)c1S(N)(=O)=O [Example 482, N1-(2-(−2-amineoethylamino)ethyl)-4-(6-aminopyridin-3-yl)-3-(2H-tetrazol-5-yl)benzene-1,2-disulfonamide] |  | 0.7813 µM | 1.563 µM |
| Nc1ccc(-c2ccc(S(=O)(=O)N[C@@H]3CCCNC3)c(S(N)(=O)=O)c2-c2nn[nH]n2)cn1 [Example 490, (R)-4-(6-aminopyridin-3-yl)-N1-(piperidin-3-yl)-3-(2H-tetrazol-5-yl)benzene-1,2-disulfonamide] |  | 1.563 µM | 3.125 µM |
